From ChEMBL document CHEMBL1201862, “PubChem BioAssay data set” (2004)
Activity calls are given as the source filed them.

Experiments:
[1] = target: Large T antigen (Simian virus 40, UniProt P03070); format: functional, Betapolyomavirus macacae;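 also: Confirmatory-stage PubChem screen for compounds that inhibit SV40 T antigen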
[2] = target: Glyceraldehyde-3-phosphate dehydrogenase (Homo sapiens, UniProt P04406)
[3] = test system: BJ; assay: BJ-TERT fibroblast viability loss – cell-based, RAS-independent, luminescence, dose response (AID 1933); format: functional; settings: Homo sapiens
[4] = test system: BJ; assay: cells; format: functional, cell-based; settings: Homo sapiens
[5] = DRD fibroblast viability loss – cell-based, non-viral oncogenic, luminescence, dose response (AID 1934); format: functional; settings: Homo sapiens
[6] = target: Paired box protein Pax-8 (Homo sapiens, UniProt Q06710); assay: PAX8 transcriptional activity inhibition in RMG-I – RMG-I cells, luciferase, cherry-pick, dose response (AID 687027); format: functional, cell-based;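 also: luciferase reporter driven by Pax8 target thyroperoxidase promoter measured by SteadyGlo luminescence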
[7] = target: FAD-linked sulfhydryl oxidase ALR (Homo sapiens, UniProt P55789); assay: ALR-catalysed DTT oxidation blockers – biochemical, H2O2 detection, luminescence, cherry-pick, dose response (AID 493248)
[8] = viability of uninfected HEp-2 cells – cell-based, HTS, cytotoxicity control for RSV inhibitor project, dose response (AID 2410); format: functional; settings: human respiratory syncytial virus
[9] = luciferase reporter signal suppression in cells – H4 neuroglioma cells, luminescence, dose response (AID 1990); format: functional, cell-based
[10] = Luminescence Cell-Based Dose Response HTS to Identify Inhibitors of 5'UTR Stem-Loop Driven Prion Protein mRNA Translation in H4 Neuroglioblastoma Cells. [Related pubchem assays: 1827 (Project Summary), 1813 (Primary HTS)]; format: functional
[11] = alpha-synuclein stem-loop luciferase translation blockers – H4 neuroglioma cells, luminescence, confirmation (AID 1988); format: functional, cell-based
[12] = viability of PTEN-deleted HCT116 cells – cell-based, HCT116 PTEN knockout, dose response (AID 1047); format: functional;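 also: HCT116 colon tumor cells with PTEN knocked out; cells exposed to compound for 60 hours before readout; potency for loss of cell viability measured by luminescence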
[13] = viability of HCT116 lacking mutant beta-catenin – cell-based, human colon tumor, dose response (AID 1045); format: functional;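 also: HCT116 colon tumor cells with beta catenin knocked out; cells exposed to compound for 60 hours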
[14] = target: T1, Ubiquitin-conjugating enzyme E2 N (Homo sapiens, UniProt P61088); format: functional;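 also: Dose-response confirmation in a TR-FRET assay detecting UBC13-driven polyubiquitin chain formation, inhibition measured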
T1 sequence (P61088 whole entry): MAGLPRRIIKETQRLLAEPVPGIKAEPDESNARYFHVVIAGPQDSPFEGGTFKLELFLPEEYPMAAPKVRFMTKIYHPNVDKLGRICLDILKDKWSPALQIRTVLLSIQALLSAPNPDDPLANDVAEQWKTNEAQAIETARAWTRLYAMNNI

[15] = target: Cytochrome P450 3A4 (Homo sapiens, UniProt P08684);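 also: CYP3A4 tested as one member of a cytochrome P450 panel screen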
[16] = cells; format: functional, cell-based
[17] = cells; format: functional, cell-based; remark: listed apart in the source
[18] = target: Genome polyprotein (dengue virus type 2, UniProt P29990); assay: flavivirus cap methylation enzyme inhibition – biochemical, confirmation dose response, primary screen (AID 588689); format: functional
[19] = target: Luciferin 4-monooxygenase (Photinus pyralis, UniProt P08659); assay: inhibition of purified Photinus pyralis luciferase – biochemical, luminescence, dose response (AID 1891)
[20] = Luminescence Cell-Based Dose Confirmation HTS to Identify Inhibitors of Platelet Dense Granule Release. [Related pubchem assays: 1663 (Primary HTS), 1678 (Summary of Project)]; format: functional
[21] = reduction of Shn3 3'UTR-driven luciferase in osteoblasts – cell-based, Clone20 osteoblasts, firefly luciferase, cherry-picked, dose response (AID 624132); format: functional;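 also: firefly luciferase luminescence from reporter carrying the Shn3 3'UTR in osteoblasts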
[22] = loss of viability in HepG2 cells – cell-based, CellTiter-Glo, cherry-picked, cytotoxicity control for Shn3 inhibitor project, dose response (AID 624134); format: functional
[23] = non-specific 3'UTR reporter inhibition in Clone20-Shn3RL – cell-based, Renilla luciferase, cherry-picked, counter-screen for Shn3 inhibitor project, dose response (AID 624133); format: functional
[24] = target: T2, Replicative DNA helicase DnaB (Mycobacterium tuberculosis, UniProt P9WMR3); assay: DnaB intein splicing inhibitors, dose response, biochemical, cell-free fluorescence (AID 449749); format: functional
T2 sequence (P9WMR3 whole entry): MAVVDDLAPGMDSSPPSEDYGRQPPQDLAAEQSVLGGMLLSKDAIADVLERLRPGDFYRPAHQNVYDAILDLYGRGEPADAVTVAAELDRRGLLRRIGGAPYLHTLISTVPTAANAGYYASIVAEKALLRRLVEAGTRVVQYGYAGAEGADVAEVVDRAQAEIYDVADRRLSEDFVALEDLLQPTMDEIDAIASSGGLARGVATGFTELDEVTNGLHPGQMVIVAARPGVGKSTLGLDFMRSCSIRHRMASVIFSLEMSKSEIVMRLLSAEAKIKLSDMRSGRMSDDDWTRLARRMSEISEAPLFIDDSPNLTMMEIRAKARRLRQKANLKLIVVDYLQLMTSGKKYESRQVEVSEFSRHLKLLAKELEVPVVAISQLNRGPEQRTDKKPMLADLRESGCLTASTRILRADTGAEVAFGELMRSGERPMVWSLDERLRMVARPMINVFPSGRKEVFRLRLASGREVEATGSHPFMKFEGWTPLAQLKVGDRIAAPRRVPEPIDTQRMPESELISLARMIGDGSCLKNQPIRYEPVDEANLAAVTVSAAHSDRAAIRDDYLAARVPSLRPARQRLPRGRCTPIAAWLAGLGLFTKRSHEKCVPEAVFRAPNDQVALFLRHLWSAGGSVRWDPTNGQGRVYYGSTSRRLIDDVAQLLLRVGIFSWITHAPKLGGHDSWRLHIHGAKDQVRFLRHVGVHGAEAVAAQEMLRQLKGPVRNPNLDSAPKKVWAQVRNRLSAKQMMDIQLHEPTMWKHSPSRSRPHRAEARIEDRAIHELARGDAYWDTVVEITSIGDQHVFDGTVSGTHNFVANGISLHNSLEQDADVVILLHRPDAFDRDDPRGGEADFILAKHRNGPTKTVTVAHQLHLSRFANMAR

[25] = target: T3, Protein RecA (Mycobacterium tuberculosis, UniProt P9WHJ3); assay: Fluorescence Cell-Free Homogeneous Dose Retest to Identify Inhibitors of RecA-Intein Splicing Activity. [Related pubchem assays (depositor defined):AID2097, AID2223, AID489010, AID492950]; format: functional
T3 sequence (P9WHJ3 whole entry): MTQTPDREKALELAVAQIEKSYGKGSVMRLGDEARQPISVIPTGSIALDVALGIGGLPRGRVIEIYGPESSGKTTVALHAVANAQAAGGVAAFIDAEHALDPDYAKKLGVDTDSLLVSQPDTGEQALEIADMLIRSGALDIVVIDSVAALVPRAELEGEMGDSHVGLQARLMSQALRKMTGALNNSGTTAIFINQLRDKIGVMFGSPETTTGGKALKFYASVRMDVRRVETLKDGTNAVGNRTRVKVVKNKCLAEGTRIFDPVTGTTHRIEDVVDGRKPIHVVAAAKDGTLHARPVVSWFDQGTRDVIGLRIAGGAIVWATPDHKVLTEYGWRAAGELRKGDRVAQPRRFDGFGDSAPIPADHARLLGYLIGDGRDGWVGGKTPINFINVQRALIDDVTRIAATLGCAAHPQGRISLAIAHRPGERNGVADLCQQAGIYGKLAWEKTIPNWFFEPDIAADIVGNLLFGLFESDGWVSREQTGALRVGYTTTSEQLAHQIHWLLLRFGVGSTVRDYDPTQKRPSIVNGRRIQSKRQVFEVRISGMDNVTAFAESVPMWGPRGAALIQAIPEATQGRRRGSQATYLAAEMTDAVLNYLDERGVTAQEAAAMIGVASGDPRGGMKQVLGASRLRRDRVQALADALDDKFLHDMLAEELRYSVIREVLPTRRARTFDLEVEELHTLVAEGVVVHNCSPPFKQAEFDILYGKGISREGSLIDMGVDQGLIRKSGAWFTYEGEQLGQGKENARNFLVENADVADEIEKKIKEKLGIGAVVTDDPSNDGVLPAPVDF

[26] = target: T4, Rac GTPase-activating protein 1 (Homo sapiens, UniProt Q9H0H5); assay: blockers of MgcRacGAP-driven Rac1 GTP hydrolysis – biochemical, ADP Hunter fluorescence, primary and confirmatory, confirmation (AID 624330); format: functional
T4 sequence (Q9H0H5 whole entry): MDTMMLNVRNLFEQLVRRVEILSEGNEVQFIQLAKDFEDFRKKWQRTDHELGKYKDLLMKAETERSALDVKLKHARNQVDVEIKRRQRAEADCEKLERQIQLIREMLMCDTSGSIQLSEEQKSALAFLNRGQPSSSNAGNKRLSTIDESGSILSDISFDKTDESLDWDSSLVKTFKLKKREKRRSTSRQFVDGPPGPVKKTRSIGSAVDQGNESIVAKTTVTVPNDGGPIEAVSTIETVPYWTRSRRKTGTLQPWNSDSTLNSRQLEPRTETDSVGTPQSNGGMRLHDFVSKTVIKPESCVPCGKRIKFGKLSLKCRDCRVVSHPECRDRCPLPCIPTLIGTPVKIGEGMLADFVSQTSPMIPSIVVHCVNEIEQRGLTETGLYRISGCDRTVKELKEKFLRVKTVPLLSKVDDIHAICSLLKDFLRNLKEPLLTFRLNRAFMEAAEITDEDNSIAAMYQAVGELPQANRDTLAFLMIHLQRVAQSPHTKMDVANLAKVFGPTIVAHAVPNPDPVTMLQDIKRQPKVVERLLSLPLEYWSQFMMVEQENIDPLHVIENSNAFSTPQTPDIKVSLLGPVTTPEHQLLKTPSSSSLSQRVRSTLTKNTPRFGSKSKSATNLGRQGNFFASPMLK

Chain of Genome polyprotein (P29990 2492-3391 limits assumed): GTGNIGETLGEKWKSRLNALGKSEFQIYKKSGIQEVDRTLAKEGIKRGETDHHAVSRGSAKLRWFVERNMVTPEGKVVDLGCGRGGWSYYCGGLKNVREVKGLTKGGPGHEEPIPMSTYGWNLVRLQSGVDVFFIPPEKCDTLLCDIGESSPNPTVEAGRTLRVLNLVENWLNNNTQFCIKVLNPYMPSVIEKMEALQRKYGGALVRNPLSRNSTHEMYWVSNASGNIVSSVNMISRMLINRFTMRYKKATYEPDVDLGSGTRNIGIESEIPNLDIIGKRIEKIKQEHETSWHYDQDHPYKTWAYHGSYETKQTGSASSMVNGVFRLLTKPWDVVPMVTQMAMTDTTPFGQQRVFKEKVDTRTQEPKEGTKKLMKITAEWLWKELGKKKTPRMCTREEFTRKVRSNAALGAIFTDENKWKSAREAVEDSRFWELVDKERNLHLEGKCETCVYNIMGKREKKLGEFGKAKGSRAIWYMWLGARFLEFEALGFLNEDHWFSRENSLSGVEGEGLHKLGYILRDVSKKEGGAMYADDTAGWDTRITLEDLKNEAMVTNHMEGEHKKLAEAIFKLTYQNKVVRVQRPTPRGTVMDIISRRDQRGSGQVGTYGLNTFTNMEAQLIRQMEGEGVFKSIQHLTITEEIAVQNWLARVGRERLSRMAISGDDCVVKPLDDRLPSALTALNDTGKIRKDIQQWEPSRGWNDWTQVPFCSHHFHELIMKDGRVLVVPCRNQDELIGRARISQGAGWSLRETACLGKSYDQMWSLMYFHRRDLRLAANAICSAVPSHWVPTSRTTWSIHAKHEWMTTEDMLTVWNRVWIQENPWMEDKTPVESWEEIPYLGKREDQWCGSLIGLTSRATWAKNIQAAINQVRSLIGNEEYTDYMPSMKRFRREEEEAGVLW
Chain of Glyceraldehyde-3-phosphate dehydrogenase (P04406 whole entry): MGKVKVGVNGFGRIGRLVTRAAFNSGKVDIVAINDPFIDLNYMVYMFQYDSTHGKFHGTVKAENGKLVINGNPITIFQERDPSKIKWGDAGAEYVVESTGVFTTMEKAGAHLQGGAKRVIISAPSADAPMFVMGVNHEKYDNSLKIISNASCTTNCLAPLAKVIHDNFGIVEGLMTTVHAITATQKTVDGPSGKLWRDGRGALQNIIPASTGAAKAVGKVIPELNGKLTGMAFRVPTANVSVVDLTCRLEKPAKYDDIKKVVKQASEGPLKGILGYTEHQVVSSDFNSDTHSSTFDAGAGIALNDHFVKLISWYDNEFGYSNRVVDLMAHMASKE
Chain of Large T antigen (P03070 whole entry): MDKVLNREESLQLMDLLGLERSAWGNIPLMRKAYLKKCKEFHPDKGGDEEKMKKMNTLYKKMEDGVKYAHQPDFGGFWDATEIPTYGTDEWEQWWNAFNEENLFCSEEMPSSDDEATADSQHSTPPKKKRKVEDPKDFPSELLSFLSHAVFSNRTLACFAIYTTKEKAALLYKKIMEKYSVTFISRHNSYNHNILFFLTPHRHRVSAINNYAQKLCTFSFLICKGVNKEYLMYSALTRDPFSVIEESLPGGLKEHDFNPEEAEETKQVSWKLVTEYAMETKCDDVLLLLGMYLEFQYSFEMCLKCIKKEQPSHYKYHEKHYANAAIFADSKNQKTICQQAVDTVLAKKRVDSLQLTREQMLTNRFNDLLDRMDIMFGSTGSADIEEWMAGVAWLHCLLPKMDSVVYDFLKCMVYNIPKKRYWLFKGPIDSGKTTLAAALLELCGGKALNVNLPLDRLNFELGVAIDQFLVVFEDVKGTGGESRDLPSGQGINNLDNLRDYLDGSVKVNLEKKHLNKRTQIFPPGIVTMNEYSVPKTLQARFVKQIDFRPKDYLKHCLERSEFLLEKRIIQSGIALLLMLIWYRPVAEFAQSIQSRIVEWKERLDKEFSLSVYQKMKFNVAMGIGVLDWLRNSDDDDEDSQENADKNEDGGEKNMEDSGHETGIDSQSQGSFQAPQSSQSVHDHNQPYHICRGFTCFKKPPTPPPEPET
Chain of FAD-linked sulfhydryl oxidase ALR (P55789 whole entry): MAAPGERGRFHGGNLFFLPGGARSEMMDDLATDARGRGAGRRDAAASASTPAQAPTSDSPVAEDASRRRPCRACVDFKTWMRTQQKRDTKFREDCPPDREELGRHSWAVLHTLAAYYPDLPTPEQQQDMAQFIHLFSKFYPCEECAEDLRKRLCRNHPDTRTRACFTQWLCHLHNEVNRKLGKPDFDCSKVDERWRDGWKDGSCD
Chain of Cytochrome P450 3A4 (P08684 whole entry): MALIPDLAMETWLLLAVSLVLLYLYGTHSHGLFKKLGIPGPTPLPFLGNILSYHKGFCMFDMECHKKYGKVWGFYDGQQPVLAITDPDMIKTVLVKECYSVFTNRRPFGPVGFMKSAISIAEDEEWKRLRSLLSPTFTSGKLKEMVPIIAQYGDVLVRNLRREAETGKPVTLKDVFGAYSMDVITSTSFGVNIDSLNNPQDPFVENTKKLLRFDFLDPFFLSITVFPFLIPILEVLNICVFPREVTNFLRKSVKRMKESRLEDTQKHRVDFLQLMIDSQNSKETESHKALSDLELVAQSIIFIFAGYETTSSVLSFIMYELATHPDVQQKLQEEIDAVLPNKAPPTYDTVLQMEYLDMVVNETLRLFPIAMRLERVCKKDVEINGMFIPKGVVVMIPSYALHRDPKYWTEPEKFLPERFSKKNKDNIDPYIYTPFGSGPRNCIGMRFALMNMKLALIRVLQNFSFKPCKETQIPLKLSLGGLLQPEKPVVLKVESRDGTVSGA
Chain of Luciferin 4-monooxygenase (P08659 whole entry): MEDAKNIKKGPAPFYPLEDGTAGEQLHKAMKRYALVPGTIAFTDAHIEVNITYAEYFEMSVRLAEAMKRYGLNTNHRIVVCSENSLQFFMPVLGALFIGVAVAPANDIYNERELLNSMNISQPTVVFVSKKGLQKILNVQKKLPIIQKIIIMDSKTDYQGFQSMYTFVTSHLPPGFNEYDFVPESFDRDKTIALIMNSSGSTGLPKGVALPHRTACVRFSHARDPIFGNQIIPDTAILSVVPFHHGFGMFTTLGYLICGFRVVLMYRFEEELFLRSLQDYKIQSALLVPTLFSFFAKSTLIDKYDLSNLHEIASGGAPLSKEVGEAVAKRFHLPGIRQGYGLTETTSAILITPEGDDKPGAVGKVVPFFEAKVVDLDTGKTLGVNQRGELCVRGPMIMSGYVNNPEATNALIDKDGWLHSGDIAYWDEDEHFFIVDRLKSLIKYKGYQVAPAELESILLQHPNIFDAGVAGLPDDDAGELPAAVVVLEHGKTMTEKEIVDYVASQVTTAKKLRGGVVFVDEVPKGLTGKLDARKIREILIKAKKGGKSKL
Chain of Paired box protein Pax-8 (Q06710 whole entry): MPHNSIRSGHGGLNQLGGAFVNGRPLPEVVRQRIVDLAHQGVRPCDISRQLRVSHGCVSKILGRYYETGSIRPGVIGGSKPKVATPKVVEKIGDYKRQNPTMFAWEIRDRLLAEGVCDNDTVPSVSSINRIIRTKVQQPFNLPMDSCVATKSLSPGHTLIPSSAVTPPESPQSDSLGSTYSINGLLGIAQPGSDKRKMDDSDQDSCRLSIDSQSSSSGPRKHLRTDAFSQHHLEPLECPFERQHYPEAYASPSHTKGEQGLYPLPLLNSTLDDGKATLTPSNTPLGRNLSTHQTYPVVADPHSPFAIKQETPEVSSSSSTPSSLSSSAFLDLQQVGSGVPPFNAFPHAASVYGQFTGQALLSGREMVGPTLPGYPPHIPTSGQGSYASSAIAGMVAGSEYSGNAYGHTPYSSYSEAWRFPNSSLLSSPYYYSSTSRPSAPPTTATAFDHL

Structure (SMILES): CCN(CC)c1ccc(NC(=O)COC(=O)c2ccc3ccccc3n2)cc1
- IC50 [1]: 48.2 µM (active)

Structure (SMILES): COc1ccc(C(CC(=O)O)C(N)=O)cc1 (configuration not stated)
- IC50 [2]: > 100 µM (not active)

Structure (SMILES): COc1ccc(C(=O)NN(C)c2nc(C(F)(F)F)nc3ccccc23)cc1
- EC50 [3]: < 0.12 µM (active)
- EC50 [4]: 0.45 µM (active)
- EC50 [5]: < 0.12 µM (active)
- AC50 [6]: 1.79 µM (active)

Structure (SMILES): COc1cc(/C=N/NC(=O)c2cc(C3CC3)[nH]n2)ccc1O
- IC50 [1]: 7.28 µM (active)
- AC50 [7]: 1.74 µM (active)

Structure (SMILES): O=C1CCCN1CCCNC(=S)Nc1ccc(Nc2ccccc2)cc1
- IC50 [1]: 18.7 µM (active)

Structure (SMILES): COc1cc(/C=C2\C(=N)N3N=C(CC(=O)N4CCCCC4)SC3=NC2=O)ccc1O
- IC50 [1]: 22.5 µM (active)

Structure (SMILES): Cc1ccc(-c2nn(-c3ccccc3)cc2CSC(=N)N)cc1
- CC50 [8]: 14.9 µM (active)
- EC50 [9]: > 120 µM (not active)
- EC50 [10]: > 120 µM (not active)
- EC50 [11]: > 120 µM (not active)
- EC50 [12]: 17.1 µM (active)
- EC50 [13]: 17.4 µM (active)
- IC50 [14]: > 20 µM (inactive)
- AC50 [15]: 39.8 µM (inconclusive)

Structure (SMILES): Cc1ccc(N(C)S(=O)(=O)c2ccc(-c3cc(C)no3)s2)cc1
- EC50 [16]: > 350 µM (not active)
- EC50 [17]: > 350 µM (not active)

Structure (SMILES): CCN1CCN(C2=C(Cl)C(=O)N(c3cccc(OC)c3)C2=O)CC1
- IC50 [2]: > 50 µM (inconclusive)

Structure (SMILES): CC(C)C1Cc2c(sc3c2c(=O)n(-c2ccccc2)c2n[nH]c(=S)n32)CO1 (configuration not stated)
- IC50 [1]: 29.5 µM (active)

Structure (SMILES): COc1cc(/C=N/NC(=O)c2cccc(S(=O)(=O)N3CCCC3)c2)ccc1O
- IC50 [1]: 9.24 µM (active)
- AC50 [7]: 1.79 µM (active)

Structure (SMILES): Cc1cc(C(C2C(=O)CC(C)(C)CC2=O)C2C(=O)CC(C)(C)CC2=O)cc(C)c1OC(F)F
- IC50 [18]: 43.5 µM (active)

Structure (SMILES): Cc1n[nH]c(O)c1C(c1ccc(-c2ccc(Cl)c(C(=O)O)c2)o1)c1c(O)n[nH]c1C
- IC50 [18]: > 100 µM (active)

Structure (SMILES): COc1ccccc1/C=C1/C(=O)ON=C1C
- IC50 [18]: > 100 µM (active)

Structure (SMILES): O=C(CN1CCCCC1)N1CCCc2ccccc21
- EC50 [16]: > 350 µM (not active)
- EC50 [17]: > 350 µM (not active)

Structure (SMILES): Cc1cccc(C(=N)NOC(=O)c2ccoc2C)c1
- EC50 [16]: > 350 µM (not active)
- EC50 [19]: 3.65 µM (active)
- EC50 [20]: 3.25 µM (active)
- EC50 [17]: 7.1 µM (active)

Structure (SMILES): CCOC(=O)C1=C(C)N=C(C)/C(=C(/O)OCC)C1C(=O)OCC(=O)N(C)C1CCS(=O)(=O)C1 (configuration not stated)
- EC50 [16]: > 350 µM (not active)
- EC50 [17]: > 350 µM (not active)

Structure (SMILES): O=C(O)Cc1csc(COc2ccccc2)n1
- IC50 [2]: > 100 µM (not active)

Structure (SMILES): COc1cccc(/C=C2\SC(=S)N(C(Cc3ccccc3)C(=O)O)C2=O)c1 (configuration not stated)
- IC50 [18]: 44.4 µM (active)

Structure (SMILES): CCOc1ccc(NCc2cccn2-c2nnc(N3CCC(C(=O)NCCCN4CCCCC4CC)CC3)s2)cc1 (configuration not stated)
- IC50 [1]: 11.7 µM (active)

Structure (SMILES): CC/N=c1\scc(C)n1/N=C/c1cc(Br)c(O)c(Br)c1
- CC50 [8]: 13.3 µM (active)
- IC50 [1]: 21.6 µM (active)

Structure (SMILES): c1csc(CCNc2ncnc3sc4c(c23)CCC4)c1
- EC50 [12]: 63.9 µM (active)
- EC50 [13]: 72.7 µM (active)
- AC50 [21]: 1.7 µM (active)
- AC50 [22]: 7.76 µM (active)
- AC50 [23]: 0.988 µM (active)

Structure (SMILES): CC1=NN(c2ccccc2)C(=O)/C1=C/c1cccs1
- AC50 [24]: 4.26 µM (active)
- EC50 [25]: 4.53 µM (active)
- IC50 [18]: 46.8 µM (active)

Structure (SMILES): COc1cc(/C=C2\SC(Nc3ccc(Cl)c(C(=O)O)c3)=NC2=O)c(Br)c(Br)c1O
- IC50 [1]: 3.27 µM (active)
- IC50 [26]: 13.9 µM (active)

Structure (SMILES): CC(C)NC(=O)NC(=O)CSc1nnc(-c2ccccc2F)n1N
- EC50 [16]: > 350 µM (not active)
- EC50 [17]: > 350 µM (not active)
